Tests used:
panel of 442 kinases [1] = target: T1, panel of 442 kinases (Homo sapiens, UniProt Q9UHD2); assay type: binding; details: kinase TBK1; compound concentration 10 µM
T1 construct: purchased KINOMEscan
T1 sequence (Q9UHD2 1-729): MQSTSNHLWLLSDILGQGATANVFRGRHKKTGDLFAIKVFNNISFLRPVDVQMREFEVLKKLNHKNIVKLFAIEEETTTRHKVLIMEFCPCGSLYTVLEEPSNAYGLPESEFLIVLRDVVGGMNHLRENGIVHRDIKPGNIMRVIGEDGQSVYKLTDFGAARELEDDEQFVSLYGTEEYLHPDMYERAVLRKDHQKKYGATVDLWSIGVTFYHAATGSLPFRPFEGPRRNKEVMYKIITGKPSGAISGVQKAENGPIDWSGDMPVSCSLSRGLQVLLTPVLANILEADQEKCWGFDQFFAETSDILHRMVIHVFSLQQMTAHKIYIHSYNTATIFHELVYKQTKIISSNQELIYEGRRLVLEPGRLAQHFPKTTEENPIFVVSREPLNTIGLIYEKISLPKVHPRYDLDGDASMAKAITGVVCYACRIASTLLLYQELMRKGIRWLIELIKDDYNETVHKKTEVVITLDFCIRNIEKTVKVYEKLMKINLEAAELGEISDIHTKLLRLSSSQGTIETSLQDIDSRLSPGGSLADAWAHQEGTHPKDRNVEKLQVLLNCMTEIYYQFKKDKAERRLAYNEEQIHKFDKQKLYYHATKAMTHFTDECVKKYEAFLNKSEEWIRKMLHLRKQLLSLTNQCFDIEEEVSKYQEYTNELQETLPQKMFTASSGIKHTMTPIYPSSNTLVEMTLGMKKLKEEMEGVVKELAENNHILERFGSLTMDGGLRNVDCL
Text: (§1) We assessed the selectivity of members of this scaffold using the KINOMEscan methodology across a near comprehensive panel of 442 kinases [[18,27]].

panel of 442 kinases [2] = target: T2, panel of 442 kinases (Homo sapiens, UniProt Q15835); assay type: binding; details: Compound Concentration 10 µM
T2 construct: purchased KINOMEscan
T2 sequence (Q15835 1-563): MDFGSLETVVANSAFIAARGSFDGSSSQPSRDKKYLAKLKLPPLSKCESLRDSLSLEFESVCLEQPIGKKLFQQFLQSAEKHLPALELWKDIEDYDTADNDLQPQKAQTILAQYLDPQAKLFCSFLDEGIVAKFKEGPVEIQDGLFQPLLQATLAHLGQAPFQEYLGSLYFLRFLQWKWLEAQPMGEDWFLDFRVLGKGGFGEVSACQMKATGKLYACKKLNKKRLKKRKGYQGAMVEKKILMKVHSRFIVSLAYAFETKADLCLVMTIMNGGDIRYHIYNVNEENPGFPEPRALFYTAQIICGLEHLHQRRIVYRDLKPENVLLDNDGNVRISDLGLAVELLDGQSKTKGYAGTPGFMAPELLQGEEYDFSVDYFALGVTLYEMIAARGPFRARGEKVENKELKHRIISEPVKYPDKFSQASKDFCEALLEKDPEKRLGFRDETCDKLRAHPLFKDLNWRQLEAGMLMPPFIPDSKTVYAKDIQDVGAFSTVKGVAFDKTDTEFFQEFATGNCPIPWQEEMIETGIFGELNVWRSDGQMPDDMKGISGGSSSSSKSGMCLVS
Text: as §1

| Compound | % Ctrl, TBK1 (panel of 442 kinases [1]) [% Ctrl] | KINOMEscan: GRK1 (panel of 442 kinases [2]) |
| --- | --- | --- |
| COc1cc(C(=O)N2CCC(N3CCN(C)CC3)CC2)ccc1Nc1ncc2c(n1)N1CCc3cccc(c31)C(=O)N2C [Compound 24] | 98 |  |
| CCOc1cc(C(=O)N2CCC(N3CCN(C)CC3)CC2)ccc1Nc1ncc2c(n1)N(C1CCCC1)c1ccccc1C(=O)N2C [Compound 26] | 100 | 100 |
| COc1cc(C(=O)N2CCC(N3CCN(C)CC3)CC2)ccc1Nc1ncc2c(n1)N(C1CCCC1)c1ccccc1C(=O)N2C [Compound 25, 11-cyclopentyl-2-((2-methoxy-4-(4-(4-methylpiperazin-1-yl)piperidine-1-carbonyl)phenyl)amino)-5-methyl-5H-benzo[e]pyrimido[5,4-b][1,4]diazepin-6(11H)-one] | 100 | 85 |
| COc1cc(C(=O)N2CCC(N3CCN(C)CC3)CC2)ccc1Nc1ncc2c(n1)N(C)c1ccccc1C(=O)N2C [15 (LRRK2-IN-1)] | 97 | 91 |

Source: PMC3914206
